{
  "source": "Sander's compilation of Henry's law constants",
  "key": {"[1]": {"test": "Henry solubility constant Hcp at 310 K (mol/(m3 Pa))"}, "[2]": {"test": "Henry solubility constant Hcp at 293 K (mol/(m3 Pa))", "settings": "reference: Yurteri et al. (1987)"}, "[3]": {"test": "Henry solubility constant Hcp at 298.15 K (mol/(m3 Pa))"}, "[4]": {"settings": "reference: Järnberg and Johanson (1995)"}, "[5]": {"settings": "reference: McIntosh and Heffron (2000)"}, "[6]": {"settings": "reference: Bissonette et al. (1990)"}, "[7]": {"settings": "reference: Lerman et al. (1983)"}, "[8]": {"settings": "reference: Stoelting and Longshore (1972)"}, "[9]": {"settings": "reference: Smith et al. (1981b)"}, "[10]": {"settings": "reference: Johanson and Dynésius (1988)"}, "[11]": {"settings": "reference: Nicholson et al. (1984)"}, "[12]": {"settings": "reference: Ruiz-Bevia and Fernandez-Torres (2010)"}, "[13]": {"settings": "reference: Warner et al. (1980)"}, "[14]": {"settings": "reference: Power and Stegall (1970)"}},
  "data": [
    {"smiles": "Cc1cccc(C)c1C", "note": "[1,2,3-trimethylbenzene]", "values": [
      {"measurement": "Henry solubility constant Hcp at 310 K", "setting": "[1]; [4]", "result": 0.0011}
    ]},
    {"smiles": "Cc1ccc(C)c(C)c1", "note": "[1,2,4-trimethylbenzene]", "values": [
      {"measurement": "Henry solubility constant Hcp at 293 K", "setting": "[2]", "result": 0.0021},
      {"measurement": "Henry solubility constant Hcp at 310 K", "setting": "[1]; [4]", "result": 0.00062},
      {"measurement": "Henry solubility constant Hcp", "setting": "[3]; reference: Li et al. (2008)", "result": 0.0017}
    ]},
    {"smiles": "Cc1cc(C)cc(C)c1", "note": "[1,3,5-trimethylbenzene]", "values": [
      {"measurement": "Henry solubility constant Hcp at 310 K", "setting": "[1]; [4]", "result": 0.00048},
      {"measurement": "Henry solubility constant Hcp", "setting": "[3]; reference: Sanemasa et al. (1981)", "result": 0.0011}
    ]},
    {"smiles": "Cc1cccc(C)c1", "note": "[1,3-dimethylbenzene]", "values": [
      {"measurement": "Henry solubility constant Hcp at 310 K", "setting": "[1]; [5]", "result": 0.00066},
      {"measurement": "Henry solubility constant Hcp", "setting": "[3]; [6]", "result": 0.0014},
      {"measurement": "Henry solubility constant Hcp", "setting": "[3]; reference: Li et al. (2008)", "result": 0.0014},
      {"measurement": "Henry solubility constant Hcp", "setting": "[3]; reference: Tsibul’skii et al. (1979)", "result": 0.0018}
    ]},
    {"smiles": "Cc1ccc(C)cc1", "note": "[1,4-dimethylbenzene]", "values": [
      {"measurement": "Henry solubility constant Hcp at 310 K", "setting": "[1]; [5]", "result": 0.00067},
      {"measurement": "Henry solubility constant Hcp", "setting": "[3]; [6]", "result": 0.0012},
      {"measurement": "Henry solubility constant Hcp", "setting": "[3]; reference: Bobadilla et al. (2003)", "result": 0.002},
      {"measurement": "Henry solubility constant Hcp", "setting": "[3]; reference: Li et al. (2008)", "result": 0.0014},
      {"measurement": "Henry solubility constant Hcp", "setting": "[3]; reference: Lin and Chou (2006)", "result": 0.0016},
      {"measurement": "Henry solubility constant Hcp", "setting": "[3]; reference: Park et al. (1997)", "result": 0.00098},
      {"measurement": "Henry solubility constant Hcp", "setting": "[3]; reference: Wasik and Tsang (1970)", "result": 0.0023}
    ]},
    {"smiles": "FC(Br)C(F)(F)F", "note": "(stereo not given) [1-bromo-1,2,2,2-tetrafluoroethane]", "values": [
      {"measurement": "Henry solubility constant Hcp at 310 K", "setting": "[1]; reference: Edelist et al. (1964)", "result": 0.00012}
    ]},
    {"smiles": "FC(F)(F)C(Cl)Br", "note": "(stereo not given) [1-bromo-1-chloro-2,2,2-trifluoroethane]", "values": [
      {"measurement": "Henry solubility constant Hcp at 310 K", "setting": "[1]; [7]", "result": 0.00033},
      {"measurement": "Henry solubility constant Hcp at 310 K", "setting": "[1]; reference: Saidman et al. (1966)", "result": 0.00034},
      {"measurement": "Henry solubility constant Hcp at 310 K", "setting": "[1]; [8]", "result": 0.00032},
      {"measurement": "Henry solubility constant Hcp", "setting": "[3]; [9]", "result": 0.00053}
    ]},
    {"smiles": "FC(F)OC(Cl)C(F)(F)F", "note": "(stereo not given) [1-chloro-2,2,2-trifluoroethyl difluoromethyl ether]", "values": [
      {"measurement": "Henry solubility constant Hcp at 310 K", "setting": "[1]; [7]", "result": 0.00024},
      {"measurement": "Henry solubility constant Hcp", "setting": "[3]; [9]", "result": 0.00048}
    ]},
    {"smiles": "COCC(C)O", "note": "(stereo not given) [1-methoxy-2-propanol]", "values": [
      {"measurement": "Henry solubility constant Hcp at 310 K", "setting": "[1]; [10]", "result": 4.8}
    ]},
    {"smiles": "C=C(C)C1CC=C(C)CC1", "note": "(stereo not given) [1-methyl-4-(1-methylethenyl)-cyclohexene]", "values": [
      {"measurement": "Henry solubility constant Hcp at 310 K", "setting": "[1]; reference: Falk et al. (1990)", "result": 0.0007},
      {"measurement": "Henry solubility constant Hcp", "setting": "[3]; reference: Copolovici and Niinemets (2007)", "result": 0.00026},
      {"measurement": "Henry solubility constant Hcp", "setting": "[3]; reference: Fichan et al. (1999)", "result": 0.0007},
      {"measurement": "Henry solubility constant Hcp", "setting": "[3]; reference: Leng et al. (2013)", "result": 0.00048}
    ]},
    {"smiles": "COC(F)(F)C(Cl)Cl", "note": "[2,2-dichloro-1,1-difluoro-1-methoxyethane]", "values": [
      {"measurement": "Henry solubility constant Hcp at 310 K", "setting": "[1]; [7]", "result": 0.0017},
      {"measurement": "Henry solubility constant Hcp at 310 K", "setting": "[1]; [8]", "result": 0.0018},
      {"measurement": "Henry solubility constant Hcp", "setting": "[3]; [9]", "result": 0.0029}
    ]},
    {"smiles": "FC(F)OC(F)(F)C(F)Cl", "note": "(stereo not given) [2-chloro-1,1,2-trifluoroethyl difluoromethyl ether]", "values": [
      {"measurement": "Henry solubility constant Hcp at 310 K", "setting": "[1]; [7]", "result": 0.00029}
    ]},
    {"smiles": "CCOCCO", "note": "[2-ethoxyethanol]", "values": [
      {"measurement": "Henry solubility constant Hcp at 310 K", "setting": "[1]; [10]", "result": 8.9}
    ]},
    {"smiles": "CCOCCOC(C)=O", "note": "[2-ethoxyethyl ethanoate]", "values": [
      {"measurement": "Henry solubility constant Hcp at 310 K", "setting": "[1]; [10]", "result": 1.5}
    ]},
    {"smiles": "COCCO", "note": "[2-methoxyethanol]", "values": [
      {"measurement": "Henry solubility constant Hcp at 310 K", "setting": "[1]; [10]", "result": 14}
    ]},
    {"smiles": "CC1=CCC2C(C1)C2(C)C", "note": "(stereo not given) [3,7,7-trimethyl-bicyclo[4.1.0]hept-3-ene]", "values": [
      {"measurement": "Henry solubility constant Hcp at 310 K", "setting": "[1]; reference: Falk et al. (1990)", "result": 0.00016}
    ]},
    {"smiles": "C=COCC(F)(F)F", "note": "[(2,2,2-trifluoroethoxy)-ethene]", "values": [
      {"measurement": "Henry solubility constant Hcp at 310 K", "setting": "[1]; reference: Munson et al. (1964)", "result": 0.00033},
      {"measurement": "Henry solubility constant Hcp at 310 K", "setting": "[1]; [8]", "result": 0.00032},
      {"measurement": "Henry solubility constant Hcp", "setting": "[3]; [9]", "result": 0.00055}
    ]},
    {"smiles": "ClC(Cl)Br", "note": "[bromodichloromethane]", "values": [
      {"measurement": "Henry solubility constant Hcp at 310 K", "setting": "[1]; reference: Zhang et al. (2002)", "result": 0.0029},
      {"measurement": "Henry solubility constant Hcp", "setting": "[3]; reference: Ervin et al. (1980)", "result": 0.0035},
      {"measurement": "Henry solubility constant Hcp", "setting": "[3]; [11]", "result": 0.0047},
      {"measurement": "Henry solubility constant Hcp", "setting": "[3]; [12]", "result": 0.0058},
      {"measurement": "Henry solubility constant Hcp", "setting": "[3]; [13]", "result": 0.0047}
    ]},
    {"smiles": "O=C=O", "note": "[carbon dioxide]", "values": [
      {"measurement": "Henry solubility constant Hcp at 310 K", "setting": "[1]; [14]", "result": 0.00024},
      {"measurement": "Henry solubility constant Hcp", "setting": "[3]; reference: Bohr (1899)", "result": 0.00034},
      {"measurement": "Henry solubility constant Hcp", "setting": "[3]; reference: Bunsen (1855a)", "result": 0.00034},
      {"measurement": "Henry solubility constant Hcp", "setting": "[3]; reference: Geffcken (1904)", "result": 0.00033},
      {"measurement": "Henry solubility constant Hcp", "setting": "[3]; reference: Kunerth (1922)", "result": 0.00033},
      {"measurement": "Henry solubility constant Hcp", "setting": "[3]; reference: Morrison and Billett (1952)", "result": 0.00033},
      {"measurement": "Henry solubility constant Hcp", "setting": "[3]; reference: Murray and Riley (1971)", "result": 0.00033},
      {"measurement": "Henry solubility constant Hcp", "setting": "[3]; reference: Orcutt and Seevers (1937a)", "result": 0.00033},
      {"measurement": "Henry solubility constant Hcp", "setting": "[3]; reference: Zheng et al. (1997)", "result": 0.00034}
    ]},
    {"smiles": "[C-]#[O+]", "note": "[carbon monoxide]", "values": [
      {"measurement": "Henry solubility constant Hcp at 310 K", "setting": "[1]; [14]", "result": "8.3e-06"},
      {"measurement": "Henry solubility constant Hcp", "setting": "[3]; reference: Bunsen (1855a)", "result": "9.5e-06"},
      {"measurement": "Henry solubility constant Hcp", "setting": "[3]; reference: Meadows and Spedding (1974)", "result": "7.9e-05"},
      {"measurement": "Henry solubility constant Hcp", "setting": "[3]; reference: Rettich et al. (1982)", "result": "9.7e-06"},
      {"measurement": "Henry solubility constant Hcp", "setting": "[3]; reference: Schmidt (1979)", "result": "7e-06"},
      {"measurement": "Henry solubility constant Hcp", "setting": "[3]; reference: Winkler (1901)", "result": "9.4e-06"}
    ]},
    {"smiles": "ClC(Br)Br", "note": "[dibromochloromethane]", "values": [
      {"measurement": "Henry solubility constant Hcp at 310 K", "setting": "[1]; reference: Zhang et al. (2002)", "result": 0.0046},
      {"measurement": "Henry solubility constant Hcp", "setting": "[3]; reference: Ervin et al. (1980)", "result": 0.0085},
      {"measurement": "Henry solubility constant Hcp", "setting": "[3]; [11]", "result": 0.0086},
      {"measurement": "Henry solubility constant Hcp", "setting": "[3]; [12]", "result": 0.011},
      {"measurement": "Henry solubility constant Hcp", "setting": "[3]; [13]", "result": 0.013}
    ]}
  ]
}
